As usually defined, the Papp is a coefficient for how fast a substance crosses the barrier. A high value points to fast passage.

*1 amine or outer side, *2 acyl side, *3 side chain or, on linkers, in order; H or OH if unused. Where a SMILES comes first, the peptide text is derived from it. Bridges are numbered along the chain shown (N, C = ends). [ ]: non-standard residue; d: D form. The star is where a group is joined. NMePhe(3-Cl) = CN[C@@H](Cc1cccc(Cl)c1)C(=O)O; NMehPhe = CN[C@@H](CCc1ccccc1)C(=O)O; X6 = O=C([C@H](CCCCO)N[*:1])[*:2]; NMeF = CN[C@@H](Cc1ccccc1)C(=O)O; NMeGABA = CN(CCCC(=O)[*:2])[*:1]; NMeI = CC[C@H](C)[C@H](NC)C(=O)O; CH2CH(OH)CF3 = OC(C*)C(F)(F)F; NMeL = CN[C@@H](CC(C)C)C(=O)O; NMeV = CN[C@H](C(=O)O)C(C)C; NMeAbu = CC[C@H](NC)C(=O)O; NMeA = CN[C@@H](C)C(=O)O; Piperidide = C1CCN(*)CC1; dAbu = CC[C@@H](N)C(=O)O; NBuGly = CCCCNCC(=O)O; Isopentyl = CC(C)CC*; NPrGly = CCCNCC(=O)O; Ethyl(2-OH) = OCC*; Sar = CNCC(=O)O; tBu = CC(C)(C)*

One data set is described as follows: in vitro. As to conditions: human, Caco-2, Caco-2 (cm/sec).
Consider `CC(C)C[C@@H]1NC(=O)[C@H](C(C)C)N(C)C(=O)C[C@@H](C(=O)N2CCCCC2)NC(=O)[C@H](CC(C)C)N(C)C(=O)CN(C)C(=O)[C@H]([C@@H](C)O)NC(=O)[C@H](CC(C)C)N(C)C(=O)[C@H](CCc2ccccc2)N(C)C(=O)[C@H](COCCO)NC(=O)[C@H](Cc2ccccc2)N(C)C(=O)[C@H](CC(C)C)N(C)C1=O` [Compound A06] ([NMeV]L[NMeL][NMeF]S(Ethyl(2-OH))[NMehPhe][NMeL]T[Sar][NMeL]D-Piperidide; lactam N-11), for which the Papp came to 0.53 ×10⁻⁶ cm/s. On the same count and under the same terms, then `CCCN1CC(=O)N(C)[C@@H](CCc2ccccc2)C(=O)N(C)[C@@H](CC(C)C)C(=O)N[C@@H](COCCC(C)C)C(=O)N(C)[C@@H](CC(C)C)C(=O)N[C@H](C(=O)N2CCCCC2)CC(=O)N(C)CC(=O)N(C)[C@@H](Cc2cccc(Cl)c2)C(=O)N[C@@H](COCCO)C(=O)N(C)[C@@H](CC(C)C)C(=O)N[C@@H]([C@@H](C)O)C1=O` [Compound A07] ([Sar][NMePhe(3-Cl)]S(Ethyl(2-OH))[NMeL]T[NPrGly][NMehPhe][NMeL]S(Isopentyl)[NMeL]D-Piperidide; lactam N-11), with 0.53 ×10⁻⁶ cm/s; and `CCCN1CC(=O)N(C)[C@@H](Cc2cccc(Cl)c2)C(=O)N(C)[C@@H](CC(C)C)C(=O)N[C@@H](COCCO)C(=O)N(C)[C@@H](CC(C)C)C(=O)N[C@H](C(=O)N2CCCCC2)CC(=O)N(C)CC(=O)N(C)[C@@H](CCc2ccccc2)C(=O)N[C@@H]([C@@H](C)CC)C(=O)N(C)[C@@H](CC(C)C)C(=O)N[C@@H]([C@@H](C)O)C1=O` [Compound A08] ([Sar][NMehPhe]I[NMeL]T[NPrGly][NMePhe(3-Cl)][NMeL]S(Ethyl(2-OH))[NMeL]D-Piperidide; lactam N-11), with 0.32 ×10⁻⁶ cm/s; and `CC(C)C[C@@H]1NC(=O)[C@H](Cc2cccc(Cl)c2)N(C)C(=O)[C@H](CC(C)C)N(C)C(=O)[C@H](COCCO)NC(=O)[C@H](C(C)C)N(C)C(=O)C[C@@H](C(=O)N2CCCCC2)NC(=O)[C@H](CC(C)C)N(C)C(=O)CN(C)C(=O)[C@H]([C@@H](C)O)NC(=O)[C@H](CC(C)C)N(C)C(=O)[C@H](CCc2ccccc2)N(C)C1=O` [Compound A09] ([NMeV]S(Ethyl(2-OH))[NMeL][NMePhe(3-Cl)]L[NMehPhe][NMeL]T[Sar][NMeL]D-Piperidide; lactam N-11), with 0.72 ×10⁻⁶ cm/s.

`CCCN1CC(=O)N(C)[C@@H](CC(C)C)C(=O)N[C@@H](COCCC(C)C)C(=O)N(C)[C@@H](Cc2ccccc2)C(=O)N(C)[C@@H](CC(C)C)C(=O)N[C@H](C(=O)N2CCCCC2)CC(=O)N[C@H](CC)C(=O)N(C)[C@@H](CCc2ccccc2)C(=O)N[C@@H](CCCCO)C(=O)N(C)[C@@H](CC(C)C)C(=O)N[C@@H]([C@@H](C)O)C1=O` [Compound B01] ([dAbu][NMehPhe][X6][NMeL]T[NPrGly][NMeL]S(Isopentyl)[NMeF][NMeL]D-Piperidide; lactam N-11): the Papp was below 0.11 ×10⁻⁶ cm/s.

As for `CC[C@H]1NC(=O)C[C@@H](C(=O)N2CCCCC2)NC(=O)[C@H](CC(C)C)N(C)C(=O)[C@H](Cc2cccc(Cl)c2)N(C)C(=O)[C@H](CCCCO)NC(=O)[C@H](CC(C)C)N(C)C(=O)CN(C)C(=O)[C@H]([C@@H](C)O)NC(=O)[C@H](CC(C)C)N(C)C(=O)[C@H](CC(C)C)NC(=O)[C@H](CCc2ccccc2)N(C)C1=O` [Compound B02] ([dAbu][NMehPhe]L[NMeL]T[Sar][NMeL][X6][NMePhe(3-Cl)][NMeL]D-Piperidide; lactam N-11), the Papp is 0.15 ×10⁻⁶ cm/s. On the same count and under the same terms, the result for `CC(C)C[C@@H]1NC(=O)[C@H](CCc2ccccc2)N(C)C(=O)[C@H](CCc2ccccc2)N(C)C(=O)[C@H](CCCCO)NC(=O)[C@H](C(C)C)N(C)C(=O)CCCN(C)C(=O)C[C@@H](C(=O)N2CCCCC2)NC(=O)[C@H](CC(C)C)N(C)C(=O)[C@H](CC(C)C)N(C)C(=O)[C@H]([C@@H](C)O)NC(=O)[C@H](CC(C)C)N(C)C1=O` [Compound B03] ([NMeGABA][NMeV][X6][NMehPhe][NMehPhe]L[NMeL]T[NMeL][NMeL]D-Piperidide; lactam N-11) reads 0.27 ×10⁻⁶ cm/s; that for `CC(C)C[C@H]1C(=O)N[C@@H](C(C)C)C(=O)N(C)[C@@H](CCc2ccccc2)C(=O)N(C)[C@@H](CCc2ccccc2)C(=O)N[C@@H](CCCCO)C(=O)N(C)[C@@H](CC(C)C)C(=O)N[C@@H]([C@@H](C)O)C(=O)N(C)[C@@H](CC(C)C)C(=O)N(C)[C@@H](CC(C)C)C(=O)N[C@H](C(=O)N2CCCCC2)CC(=O)N(C)CCCC(=O)N1C` [Compound B04] ([NMeGABA][NMeL]V[NMehPhe][NMehPhe][X6][NMeL]T[NMeL][NMeL]D-Piperidide; lactam N-11), 0.07 ×10⁻⁶ cm/s; that for `CCCN1CC(=O)N(C)[C@@H](CC(C)C)C(=O)N[C@H](C(=O)N2CCCCC2)CC(=O)N(C)[C@@H](C)C(=O)N[C@@H](CCCCO)C(=O)N(C)[C@@H](CC(C)C)C(=O)N(C)[C@@H](Cc2cccc(Cl)c2)C(=O)N[C@@H](C(C)C)C(=O)N(C)[C@@H](CCc2ccccc2)C(=O)N(C)[C@@H](CC(C)C)C(=O)N[C@@H]([C@@H](C)O)C1=O` [Compound B05] ([NMeA][X6][NMeL][NMePhe(3-Cl)]V[NMehPhe][NMeL]T[NPrGly][NMeL]D-Piperidide; lactam N-11), 0.26 ×10⁻⁶ cm/s. `CC[C@H]1C(=O)N[C@@H](CC(C)C)C(=O)N(C)[C@@H](CC(C)C)C(=O)N(C)[C@@H](Cc2ccccc2)C(=O)N[C@@H](CCCCO)C(=O)N(C)[C@@H](CCc2ccccc2)C(=O)N(C)[C@@H](CC(C)C)C(=O)N[C@@H]([C@@H](C)O)C(=O)N(C)CC(=O)N(C)[C@@H](CC(C)C)C(=O)N[C@H](C(=O)N2CCCCC2)CC(=O)N1C` [Compound B06] ([NMeAbu]L[NMeL][NMeF][X6][NMehPhe][NMeL]T[Sar][NMeL]D-Piperidide; lactam N-11) registered a Papp of 0.39 ×10⁻⁶ cm/s. Against the preceding molecule, the Papp is about 1.5-fold higher. Still for that read-out and setting: the result for `CCCN1CC(=O)N(C)[C@@H](CCc2ccccc2)C(=O)N(C)[C@@H](CC(C)C)C(=O)N[C@@H](COCCC(C)C)C(=O)N(C)[C@@H](CC(C)C)C(=O)N[C@H](C(=O)N2CCCCC2)CC(=O)N(C)CC(=O)N(C)[C@@H](Cc2cccc(Cl)c2)C(=O)N[C@@H](CCCCO)C(=O)N(C)[C@@H](C(C)C)C(=O)N[C@@H]([C@@H](C)O)C1=O` [Compound B07] ([Sar][NMePhe(3-Cl)][X6][NMeV]T[NPrGly][NMehPhe][NMeL]S(Isopentyl)[NMeL]D-Piperidide; lactam N-11) reads 0.21 ×10⁻⁶ cm/s; that for `CCCN1CC(=O)N(C)[C@@H](Cc2cccc(Cl)c2)C(=O)N(C)[C@@H](CC(C)C)C(=O)N[C@@H](CCCCO)C(=O)N(C)[C@@H](CC(C)C)C(=O)N[C@H](C(=O)N2CCCCC2)CC(=O)N(C)CC(=O)N(C)[C@@H](CCc2ccccc2)C(=O)N[C@@H](C(C)C)C(=O)N(C)[C@@H](CC(C)C)C(=O)N[C@@H]([C@@H](C)O)C1=O` [Compound B08] ([Sar][NMehPhe]V[NMeL]T[NPrGly][NMePhe(3-Cl)][NMeL][X6][NMeL]D-Piperidide; lactam N-11), 0.15 ×10⁻⁶ cm/s; that for `CC[C@H]1C(=O)N[C@@H](CCCCO)C(=O)N(C)[C@@H](CC(C)C)C(=O)N(C)[C@@H](Cc2cccc(Cl)c2)C(=O)N[C@@H](CC(C)C)C(=O)N(C)[C@@H](CCc2ccccc2)C(=O)N(C)[C@@H](CC(C)C)C(=O)N[C@@H]([C@@H](C)O)C(=O)N(C)CC(=O)N(C)[C@@H](CC(C)C)C(=O)N[C@H](C(=O)N2CCCCC2)CC(=O)N1C` [Compound B09] ([NMeAbu][X6][NMeL][NMePhe(3-Cl)]L[NMehPhe][NMeL]T[Sar][NMeL]D-Piperidide; lactam N-11), 0.31 ×10⁻⁶ cm/s. On the same count and under the same terms, the result for `CCCN1CC(=O)N(C)[C@@H](CC(C)C)C(=O)N[C@@H](CCCCO)C(=O)N(C)[C@@H](Cc2cccc(Cl)c2)C(=O)N(C)[C@@H](CC(C)C)C(=O)N[C@H](C(=O)N2CCCCC2)CC(=O)N[C@H](CC)C(=O)N(C)[C@@H](Cc2ccccc2)C(=O)N[C@@H](CC(C)C)C(=O)N(C)[C@@H](CC(C)C)C(=O)N[C@@H]([C@@H](C)O)C1=O` [Compound B10] ([dAbu][NMeF]L[NMeL]T[NPrGly][NMeL][X6][NMePhe(3-Cl)][NMeL]D-Piperidide; lactam N-11) reads 0.25 ×10⁻⁶ cm/s.

The same data set, now with this note: human, Caco-2, Caco-2 (membrane permeability).
With `CC(C)C[C@H]1C(=O)N[C@@H](COCC(O)C(F)(F)F)C(=O)N(C)[C@@H](Cc2cccc(Cl)c2)C(=O)N(C)[C@@H](Cc2ccccc2)C(=O)N[C@@H](COC(C)(C)C)C(=O)N(C)[C@@H](CC(C)C)C(=O)N[C@@H]([C@@H](C)O)C(=O)N(C)[C@@H](CC(C)C)C(=O)N(C)[C@@H](CC(C)C)C(=O)N[C@H](C(=O)N2CCCCC2)CC(=O)N(C)CCCC(=O)N1C` (stereo partly drawn) [Compound C02] ([NMeGABA][NMeL]S(CH2CH(OH)CF3)[NMePhe(3-Cl)][NMeF]S(tBu)[NMeL]T[NMeL][NMeL]D-Piperidide; lactam N-11), the Papp stood at 0.19 ×10⁻⁶ cm/s. `CC[C@H](C)[C@@H]1NC(=O)[C@H](CC(C)C)N(C)C(=O)CCCN(C)C(=O)C[C@@H](C(=O)N2CCCCC2)NC(=O)[C@H](CC(C)C)N(C)C(=O)[C@H](CC(C)C)N(C)C(=O)[C@H]([C@@H](C)O)NC(=O)[C@H](CC(C)C)N(C)C(=O)[C@H](COCC(O)C(F)(F)F)NC(=O)[C@H](Cc2ccccc2)N(C)C(=O)[C@H](Cc2ccccc2)N(C)C1=O` (stereo partly drawn) [Compound C03] ([NMeGABA][NMeL]I[NMeF][NMeF]S(CH2CH(OH)CF3)[NMeL]T[NMeL][NMeL]D-Piperidide; lactam N-11): the Papp worked out at 0.5 ×10⁻⁶ cm/s. Consider `CCCCN1CC(=O)N(C)[C@@H](CC(C)C)C(=O)N[C@H](C(=O)N2CCCCC2)CC(=O)N(C)[C@@H](C)C(=O)N[C@@H](COCC(O)C(F)(F)F)C(=O)N(C)[C@@H](CC(C)C)C(=O)N(C)[C@@H](Cc2ccccc2)C(=O)N[C@@H](CC(C)C)C(=O)N(C)[C@@H](Cc2ccccc2)C(=O)N(C)[C@@H]([C@@H](C)CC)C(=O)N[C@@H]([C@@H](C)O)C1=O` (stereo partly drawn) [Compound C04] ([NMeA]S(CH2CH(OH)CF3)[NMeL][NMeF]L[NMeF][NMeI]T[NBuGly][NMeL]D-Piperidide; lactam N-11), for which the Papp was determined as 0.29 ×10⁻⁶ cm/s. This Papp lies about 1.7-fold lower than the previous one. On the same count and under the same terms, the result for `CC[C@H](C)[C@H]1C(=O)N[C@@H]([C@@H](C)O)C(=O)N(C)CC(=O)N(C)[C@@H](CC(C)C)C(=O)N[C@H](C(=O)N2CCCCC2)CC(=O)N(C)[C@@H](C(C)C)C(=O)N[C@@H](CC(C)C)C(=O)N(C)[C@@H](CC(C)C)C(=O)N(C)[C@@H](Cc2ccccc2)C(=O)N[C@@H](COCC(O)C(F)(F)F)C(=O)N(C)[C@@H](Cc2ccccc2)C(=O)N1C` (stereo partly drawn) [Compound C05] ([NMeV]L[NMeL][NMeF]S(CH2CH(OH)CF3)[NMeF][NMeI]T[Sar][NMeL]D-Piperidide; lactam N-11) reads 0.57 ×10⁻⁶ cm/s.

Values taken from patent publication US20230096766A1, “AMINO ACID HAVING FUNCTIONAL GROUP CAPABLE OF INTERMOLECULAR HYDROGEN BONDING, PEPTIDE COMPOUND CONTAINING SAME AND METHOD FOR PRODUCTION THEREOF” (Chugai Seiyaku Kabushiki Kaisha, priority 2018, published 2023).
